Results as given in US10322087B2, “Targeted liposomal delivery of cGMP analogues” (priority 2015, dated 2019).
“Also recorded” adds a separate entry of the source.

Key:
[1] = target: PKG1α (Homo sapiens, UniProt Q13976); assay: Inhibitory constants for DF003, PKG1α; assay type: biochemical
Excerpt: (§1) The active compound DF003 is an analogue of cGMP, blocking PKG activity with high specificity. This is particularly true for the PKG1α and PKG1β isoforms, while PKG2 is less well inhibited. The inhibitory constants for the two other potential targets CNGC and protein kinase A (PKA) isoforms 1 and 2 are 2-3 log units higher (Table 2) than those for PKG isoforms. cGMP and its analogues are targeting PKG and CNGC but could potentially also interfere with PKA, PDE or even HCN channel activity. The table gives the inhibitory constants (Ki) of DF003 for these targets and (where available) the IC50 values.

[2] = target: PKG1β (Homo sapiens, UniProt Q13976); assay: Inhibitory constants for DF003, PKG1β; assay type: biochemical
Excerpt: as §1

[3] = target: PKG2 (Homo sapiens, UniProt Q13237); assay: Inhibitory constants for DF003, PKG2; assay type: biochemical
Excerpt: as §1

[4] = tested on: CNGC; assay: Inhibitory constants for DF003, CNGC; assay type: biochemical
Excerpt: as §1

[5] = target: PKA1; assay: Inhibitory constants for DF003, PKA1; assay type: biochemical
Excerpt: as §1

[6] = target: PKA2; assay: Inhibitory constants for DF003, PKA2; assay type: biochemical
Excerpt: as §1

[7] = target: PDE1B (Homo sapiens, UniProt Q01064); assay: Inhibitory constants for DF003, PDE1B; assay type: biochemical
Excerpt: as §1

[8] = target: PDE2 (Homo sapiens, UniProt O00408); assay: Inhibitory constants for DF003, PDE2; assay type: biochemical
Excerpt: as §1

[9] = target: PDE4; assay: Inhibitory constants for DF003, PDE4; assay type: biochemical
Excerpt: as §1

[10] = target: PDE5 (Homo sapiens, UniProt O76074); assay: Inhibitory constants for DF003, PDE5; assay type: biochemical
Excerpt: as §1

[11] = target: PDE10 (Homo sapiens, UniProt Q9Y233); assay: Inhibitory constants for DF003, PDE10; assay type: biochemical
Excerpt: as §1

[12] = tested on: rd1 photoreceptor-like cells; assay: Primary retinal cell culture, cell death (Ethidium homodimer), rd1; assay type: cell-based, mouse
Experimental: (§2) Different doses of DF003 and LP-DF003 were tested in vitro on a primary culture of retinal cells derived from the rd1 mouse model. About 20-30% of the primary cells can be differentiated into rod photoreceptors (Demontis et al. 2012, PLoS One. 7, e33338; Giordano et al. 2007, Mol. Vis. 13, 1842-1850). Retinal stem cells from adult wt and rd1 mice were isolated from the ciliary epithelium after treatment with 2 mg/ml dispase (20 min) followed by 1.33 mg/ml trypsin 0.67 mg/ml, hyaluronidase and 0.13 mg/ml kynurenic acid (10 min) and cultured for a week in serum free medium containing 20 ng/ml basic FGF, 2 μg/ml heparin, 0.6% glucose, N2 hormone mix in DMEM-F12 to form neurospheres (Giordano et al., 2007, supra). Retinal neurospheres were then plated on glass slides coated with extracellular matrix (ECM, Sigma) in DMEM-F12 supplemented with 20 ng/ml FGF for 4 days. […] Cell death was evaluated by staining of cells for 2 minutes with 2 μM Ethidium homodimer and counterstaining of nuclei with DAPI (4′,6-diamidino-2-phenylindole, Sigma). Slides were mounted with mowioll 4-88 (Sigma) and analysed at a Zeiss Axioskop 40 fluorescence microscope. Ethidium homodimer positive cells were counted in each slide and expressed as percentages of the total number of cells (DAPI stained) per slide. […]

[13] = tested on: wild-type (wt) photoreceptor-like cells; assay: Primary retinal cell culture, wild-type; assay type: cell-based, mouse; conditions: up to the highest concentration used, 50 μM
Experimental: as §2

[14] = tested on: organotypic rd1 retinal explant cultures; assay: Organotypic retinal explant culture, rd1; assay type: cell-based, mouse
Excerpt: (§3) For biochemical analyses and comparisons between models and wt tissues, we typically use material from ages corresponding to the onset of retinal degeneration. Retinal tissue is obtained from post-natal day 5 (PN5) animals, from which, after sacrifice, the eyes are enucleated and retinae cultured as retinal explants. In brief, the retina with the retinal pigment epithelium (RPE) still attached is isolated and subsequently transferred to Millicell culture dish filter inserts (Millipore AB, Solna, Sweden; PIHA03050), with the RPE layer facing the culturing membrane. The explants are then incubated in custom made R16 nutrient medium at 37° C. The nutrient medium has a volume of 1.5 ml per dish, which is replaced with fresh medium usually every second day (unless the exact culturing paradigm requires otherwise) during the culturing period.
(§4) PN5 explants were allowed to adjust to culture conditions for two days in vitro (DIV), after which they were subjected to treatments of interest. […]
(§5) In both cases the results were captured by means of a microscope and digital camera, analysed manually or semi-automatically, and this was then followed by calculations for statistical significance of the recorded data in principle as published previously (Arango-Gonzalez et al. 2014, PLoS One. 9, e112142).

[15] = tested on: wt explant cultures; assay: Organotypic retinal explant culture, wt; assay type: cell-based, mouse; conditions: up to 50 μM
Excerpt: as §3, §4, §5

[16] = tested on: retinal explants of rd10 model; assay: Organotypic retinal explant culture, rd10; assay type: cell-based, mouse; conditions: data not shown
Excerpt: as §3, §4, §5

[17] = tested on: retinal explants of rd2 mouse model; assay: Organotypic retinal explant culture, rd2; assay type: cell-based; conditions: data not shown
Excerpt: as §3, §4, §5

[18] = tested on: rd1 mice; assay: In vivo retinitis pigmentosa model, rd1 mouse; conditions: PN14, intraperitoneal 50 mg/kg once per day, vs untreated rd1
Experimental: Before treatment with drug or drug/DDS combinations, the animals were anesthetized with diethyl-ether. For systemic treatment, 0.9% NaCl solution containing liposomal DDS/drug formulation were injected either into the tail vein (caudal vein; intravenous; i.v.; 50 μl) or into the peritoneum (intraperitoneal; i.p.; 200 μl) of the anesthetized animal. In rd10 mice, a local intravitreal (IVT) treatment was also tested. Here, the animals received a 0.5 μl injection into the vitreous body of one eye, while the other eye was kept as untreated, contralateral control. For both i.p. and IVT treatments a liposomal formulation not containing DF003 (i.e. “empty” liposomes) was used as an additional control.
The in vivo treatment was performed initially on rd1 animals, but later extended to other animal models (rd2, rd10, cpfl1, Rho P23H). […]
At various post-treatment time-points (see Table 1), in vivo optic coherence tomography (OCT) and scanning laser ophthalmoscopy (SLO) analysis was used for direct, non-invasive imaging of retinal morphology (OCT) and of fluorescently labelled drugs (SLO) or drug/DDS combinations to determine the distribution and uptake of drug in the retina. In addition, retinal function was assessed using electroretinographic (ERG) recordings. […]

[19] = Pharmacokinetic study in adult rats; conditions: rat, blood, 20 mg/kg, single injection 20 mg/kg, read-out: in vivo half-life
Experimental: A pharmacokinetic study was performed in adult rats (3 months old) that received a single injection of either free DF003 or LP-DF003 at an initial dose of 20 mg/kg.

[20] = tested on: rd1 and rd2 photoreceptors; conditions: in vitro and in vivo mouse retinitis pigmentosa models; cited from earlier work

Sequence of PKG2 (Q13237 whole entry): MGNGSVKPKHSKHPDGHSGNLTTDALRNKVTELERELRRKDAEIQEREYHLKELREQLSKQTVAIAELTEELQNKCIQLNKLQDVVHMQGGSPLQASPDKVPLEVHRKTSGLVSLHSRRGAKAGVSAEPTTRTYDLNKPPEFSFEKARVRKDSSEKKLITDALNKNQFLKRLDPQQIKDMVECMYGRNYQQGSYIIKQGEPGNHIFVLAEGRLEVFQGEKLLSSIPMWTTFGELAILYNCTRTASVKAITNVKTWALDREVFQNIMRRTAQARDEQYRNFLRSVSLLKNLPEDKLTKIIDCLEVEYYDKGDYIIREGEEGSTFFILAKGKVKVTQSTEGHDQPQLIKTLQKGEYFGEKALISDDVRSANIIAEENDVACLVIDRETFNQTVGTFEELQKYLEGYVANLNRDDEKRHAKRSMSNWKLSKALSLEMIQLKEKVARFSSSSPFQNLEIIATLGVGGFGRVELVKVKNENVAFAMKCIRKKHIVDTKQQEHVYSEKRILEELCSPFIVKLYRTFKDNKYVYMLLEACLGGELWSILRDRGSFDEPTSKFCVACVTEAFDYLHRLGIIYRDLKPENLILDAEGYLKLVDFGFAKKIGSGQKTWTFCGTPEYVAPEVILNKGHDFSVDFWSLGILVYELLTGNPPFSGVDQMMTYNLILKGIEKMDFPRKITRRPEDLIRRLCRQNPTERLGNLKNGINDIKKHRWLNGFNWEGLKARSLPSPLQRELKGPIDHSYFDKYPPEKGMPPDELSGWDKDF
Sequence of PKG1β (Q13976 1-686 isoform Q13976-2): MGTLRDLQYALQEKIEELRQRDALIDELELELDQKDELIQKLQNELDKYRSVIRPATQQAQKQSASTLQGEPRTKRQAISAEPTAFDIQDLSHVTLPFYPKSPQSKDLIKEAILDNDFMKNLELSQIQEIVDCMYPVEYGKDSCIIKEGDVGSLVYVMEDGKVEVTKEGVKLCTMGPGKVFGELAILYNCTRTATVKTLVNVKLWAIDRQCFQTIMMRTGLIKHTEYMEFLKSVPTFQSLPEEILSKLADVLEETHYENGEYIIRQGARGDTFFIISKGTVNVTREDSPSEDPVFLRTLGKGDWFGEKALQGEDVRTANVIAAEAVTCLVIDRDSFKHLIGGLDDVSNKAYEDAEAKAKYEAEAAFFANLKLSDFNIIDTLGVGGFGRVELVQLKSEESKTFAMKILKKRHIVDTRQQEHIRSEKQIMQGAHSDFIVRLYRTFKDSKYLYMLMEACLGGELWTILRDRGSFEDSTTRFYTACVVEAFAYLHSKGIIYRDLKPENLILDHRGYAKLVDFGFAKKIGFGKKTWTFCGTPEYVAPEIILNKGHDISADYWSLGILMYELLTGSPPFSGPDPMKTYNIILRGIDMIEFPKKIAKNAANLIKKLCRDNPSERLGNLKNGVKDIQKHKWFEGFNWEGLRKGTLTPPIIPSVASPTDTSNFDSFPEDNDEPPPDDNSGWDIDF
Sequence of PDE2 (O00408 whole entry): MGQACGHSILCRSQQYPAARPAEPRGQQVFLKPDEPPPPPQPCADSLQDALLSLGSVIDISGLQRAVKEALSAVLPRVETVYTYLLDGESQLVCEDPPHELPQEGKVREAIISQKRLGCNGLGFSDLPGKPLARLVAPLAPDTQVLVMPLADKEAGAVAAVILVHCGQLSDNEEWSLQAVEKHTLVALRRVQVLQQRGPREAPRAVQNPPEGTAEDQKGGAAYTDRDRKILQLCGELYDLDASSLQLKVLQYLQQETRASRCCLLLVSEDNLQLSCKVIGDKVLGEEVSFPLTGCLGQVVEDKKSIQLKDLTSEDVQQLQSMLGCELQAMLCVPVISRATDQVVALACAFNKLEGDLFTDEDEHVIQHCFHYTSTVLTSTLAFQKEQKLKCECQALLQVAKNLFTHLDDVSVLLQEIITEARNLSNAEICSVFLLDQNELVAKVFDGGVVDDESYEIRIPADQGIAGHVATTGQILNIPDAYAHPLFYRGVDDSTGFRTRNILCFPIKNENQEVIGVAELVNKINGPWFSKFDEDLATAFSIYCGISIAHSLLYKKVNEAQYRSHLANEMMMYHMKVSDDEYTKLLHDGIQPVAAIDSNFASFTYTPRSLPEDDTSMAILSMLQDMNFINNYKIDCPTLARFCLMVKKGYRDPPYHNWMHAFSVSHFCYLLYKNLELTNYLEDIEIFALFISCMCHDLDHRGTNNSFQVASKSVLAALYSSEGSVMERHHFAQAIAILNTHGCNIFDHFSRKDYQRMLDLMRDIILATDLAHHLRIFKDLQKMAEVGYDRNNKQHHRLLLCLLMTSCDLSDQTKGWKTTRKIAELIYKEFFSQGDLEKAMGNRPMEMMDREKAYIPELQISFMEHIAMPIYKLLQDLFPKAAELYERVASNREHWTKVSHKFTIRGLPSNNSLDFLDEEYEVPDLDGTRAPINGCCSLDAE
Sequence of PDE1B (Q01064 whole entry, species assumed): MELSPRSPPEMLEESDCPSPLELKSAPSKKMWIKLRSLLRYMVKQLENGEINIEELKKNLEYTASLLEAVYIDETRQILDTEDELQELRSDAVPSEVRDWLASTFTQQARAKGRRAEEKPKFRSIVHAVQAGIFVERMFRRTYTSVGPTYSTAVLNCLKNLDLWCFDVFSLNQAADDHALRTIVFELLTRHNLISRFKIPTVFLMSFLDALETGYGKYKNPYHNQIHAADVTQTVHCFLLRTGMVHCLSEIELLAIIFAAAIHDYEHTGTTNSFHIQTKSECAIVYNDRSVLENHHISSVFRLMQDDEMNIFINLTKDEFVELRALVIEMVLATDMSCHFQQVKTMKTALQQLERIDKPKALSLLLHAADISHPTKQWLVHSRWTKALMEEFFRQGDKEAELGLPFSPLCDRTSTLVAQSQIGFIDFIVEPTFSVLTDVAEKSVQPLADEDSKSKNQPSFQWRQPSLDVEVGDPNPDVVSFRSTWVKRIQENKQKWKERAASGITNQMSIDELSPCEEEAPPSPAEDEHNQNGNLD
Sequence of PDE10 (Q9Y233 whole entry): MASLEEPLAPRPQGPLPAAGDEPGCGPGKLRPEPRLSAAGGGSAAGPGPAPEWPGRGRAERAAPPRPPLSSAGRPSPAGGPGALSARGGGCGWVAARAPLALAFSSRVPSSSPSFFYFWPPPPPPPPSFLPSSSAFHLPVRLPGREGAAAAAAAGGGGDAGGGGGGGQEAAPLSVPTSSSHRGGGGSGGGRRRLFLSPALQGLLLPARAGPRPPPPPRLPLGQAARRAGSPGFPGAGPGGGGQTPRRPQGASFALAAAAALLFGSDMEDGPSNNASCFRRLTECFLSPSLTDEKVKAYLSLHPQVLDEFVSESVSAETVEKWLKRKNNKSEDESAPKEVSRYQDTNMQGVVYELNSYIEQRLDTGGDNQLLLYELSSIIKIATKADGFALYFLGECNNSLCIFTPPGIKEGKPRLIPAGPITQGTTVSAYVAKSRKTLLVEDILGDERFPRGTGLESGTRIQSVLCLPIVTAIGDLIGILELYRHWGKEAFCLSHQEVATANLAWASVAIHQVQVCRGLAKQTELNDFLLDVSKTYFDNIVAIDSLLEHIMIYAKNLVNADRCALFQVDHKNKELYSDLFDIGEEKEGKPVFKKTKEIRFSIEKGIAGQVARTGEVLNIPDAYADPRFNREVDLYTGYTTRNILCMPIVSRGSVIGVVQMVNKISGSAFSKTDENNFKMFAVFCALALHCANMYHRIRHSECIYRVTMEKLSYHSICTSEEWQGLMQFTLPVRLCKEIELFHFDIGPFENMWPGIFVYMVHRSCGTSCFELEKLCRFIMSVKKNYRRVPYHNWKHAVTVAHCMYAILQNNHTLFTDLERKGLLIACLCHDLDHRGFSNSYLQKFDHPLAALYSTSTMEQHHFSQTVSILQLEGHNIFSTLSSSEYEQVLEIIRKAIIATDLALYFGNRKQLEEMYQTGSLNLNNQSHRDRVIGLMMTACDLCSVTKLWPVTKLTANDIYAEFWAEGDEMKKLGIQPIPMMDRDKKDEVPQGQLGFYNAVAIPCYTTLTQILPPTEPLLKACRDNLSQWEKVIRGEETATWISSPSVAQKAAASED
Sequence of PKG1α (Q13976 whole entry, canonical isoform): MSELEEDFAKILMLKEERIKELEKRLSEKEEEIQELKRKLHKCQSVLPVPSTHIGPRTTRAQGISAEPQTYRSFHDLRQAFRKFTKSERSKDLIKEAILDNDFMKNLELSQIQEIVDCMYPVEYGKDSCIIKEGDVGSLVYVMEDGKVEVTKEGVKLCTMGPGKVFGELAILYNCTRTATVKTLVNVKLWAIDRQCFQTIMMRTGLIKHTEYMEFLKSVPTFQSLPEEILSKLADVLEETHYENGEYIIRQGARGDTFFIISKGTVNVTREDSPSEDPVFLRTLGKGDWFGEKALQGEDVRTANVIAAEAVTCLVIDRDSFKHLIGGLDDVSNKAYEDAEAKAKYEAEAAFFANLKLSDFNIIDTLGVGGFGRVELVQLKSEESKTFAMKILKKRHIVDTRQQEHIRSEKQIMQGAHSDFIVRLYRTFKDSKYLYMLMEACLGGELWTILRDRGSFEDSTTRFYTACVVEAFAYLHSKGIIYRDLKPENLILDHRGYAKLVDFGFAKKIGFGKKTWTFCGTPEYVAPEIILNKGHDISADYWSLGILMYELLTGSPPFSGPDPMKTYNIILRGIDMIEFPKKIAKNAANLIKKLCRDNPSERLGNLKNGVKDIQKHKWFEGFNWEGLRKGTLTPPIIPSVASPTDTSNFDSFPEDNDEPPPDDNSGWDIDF

O=c1c2nc(Br)n(C3OC4COP(O)(=S)OC4C3O)c2nc2[nH]c(-c3ccccc3)cn12 [DF003, Sodium, 3-[(4 aR,6R,7R,7aS)-7-hydroxy-2-oxido-2-sulfanylidene-4a,6,7,7a-tetrahydro-4H-furo [3,2-d] [1,3,2]dioxaphosphinin-6-yl]-2-bromo-6-phenyl-5H-imidazo [1,2-a] purin-9-one]
Ki [1]: 0.035 µM
Ki [2]: 0.03 µM
IC50 [3]: 0.9 µM
Ki [3]: 0.45 µM
IC50 [4]: 25 µM
inhibitory constants for CNGC and PKA isoforms 1 and 2 higher than those for PKG isoforms ([4]; CNGC and PKA1/PKA2 versus PKG isoforms): 2-3 log units
Ki [5]: > 50 µM
Ki [6]: 11 µM
Ki [7]: 2.5 µM
Ki [8]: 0.8 µM
Ki [9]: 8.1 µM
Ki [10]: 4.1 µM
Ki [11]: 5 µM
lowest concentration that still reduced the death of rd1 photoreceptor-like cells ([12]; LP-DF003 dose expressed as corresponding DF003 concentration): 100 nM
protective effect on rd1 photoreceptor-like cells ([12]; cell culture, FIG. 1A): preserved the viability
effect on wild-type photoreceptor-like cells (toxicity) [13]: not affected
photoreceptor death in rd1 retinal explants ([14]; FIG. 1B): reduced photoreceptor death; also recorded: preserved the viability
toxicity in the inner retina ([14]; organotypic retinal explants, data not shown): no evidence of DF003 toxicity
toxicity in wt retinal explants [15]: no signs of toxicity; also recorded: not affected
photoreceptor death in rd10 retinal explants [16]: prevented photoreceptor death
photoreceptor death in rd2 retinal explants [17]: prevented photoreceptor death
rd1 photoreceptor survival [18]: did not show any improvement; also recorded: had no effect
half-life [19]: ~15 min

Nc1nc2c(nc(Br)n2[C@@H]2O[C@@H]3COP(O)(=S)O[C@H]3[C@H]2O)c(=O)[nH]1 (stereo partly drawn) [Rp-8-Br-cGMPS]
protection of rd1 and rd2 photoreceptors [20]: some protection
